The source of these data is ChEMBL document CHEMBL1144926, “Structure-activity relationships of dynorphin a analogues modified in the address sequence” (J Med Chem, 2003).

Non-standard residues stand in square brackets, D forms with d. Residues, ends and D or L forms follow the SMILES beside them. Nle = CCCC[C@H](N)C(=O)O

The target in one test is Mu-type opioid receptor (Homo sapiens, UniProt P35372). As to the kind of experiment: biochemical. In kind it is cell-based, CHO.
Test [1] concerns the target T1, Kappa-type opioid receptor (Homo sapiens, UniProt P41145). Briefly: biochemical. In kind it is cell-based, CHO.
The target in test [2] is Delta-type opioid receptor (Homo sapiens, UniProt P41143). As to the kind of experiment: In vitro binding affinity to human Opioid receptor delta 1 on CHO cell membranes using [3H]diprenorphine displacement.
Sequence of Delta-type opioid receptor (P41143 whole entry): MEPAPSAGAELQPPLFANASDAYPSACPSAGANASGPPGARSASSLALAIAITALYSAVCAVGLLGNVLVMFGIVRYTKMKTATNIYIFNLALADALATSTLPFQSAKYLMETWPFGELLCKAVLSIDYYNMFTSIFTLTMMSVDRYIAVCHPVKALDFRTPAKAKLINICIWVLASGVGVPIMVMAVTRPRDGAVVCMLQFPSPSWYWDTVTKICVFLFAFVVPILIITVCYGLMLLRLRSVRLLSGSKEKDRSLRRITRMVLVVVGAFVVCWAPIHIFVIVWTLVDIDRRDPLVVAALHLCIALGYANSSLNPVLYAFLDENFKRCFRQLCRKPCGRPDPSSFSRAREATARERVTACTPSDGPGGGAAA
In test [3] the target is T1, Kappa-type opioid receptor. Briefly: Antagonistic activity in the Opioid receptor kappa 1 -mediated [35S]GTP-gamma-S, binding assay against 50 nM U-50,488. In kind it is functional. (Binding of GTPγS marks nucleotide exchange on a G protein.)
Test [4] deals with T1, Kappa-type opioid receptor. In kind it is functional.
The target in test [5] is T2, Opioid receptors; mu/kappa/delta (Homo sapiens) (UniProt P41145+P41143+P35372). Briefly: Binding affinity towards human kappa,mu,delta receptors was calculated as the ratio; 1/560/1200. In kind it is protein assay.
T2 sequence (P35372 whole entry, looked up): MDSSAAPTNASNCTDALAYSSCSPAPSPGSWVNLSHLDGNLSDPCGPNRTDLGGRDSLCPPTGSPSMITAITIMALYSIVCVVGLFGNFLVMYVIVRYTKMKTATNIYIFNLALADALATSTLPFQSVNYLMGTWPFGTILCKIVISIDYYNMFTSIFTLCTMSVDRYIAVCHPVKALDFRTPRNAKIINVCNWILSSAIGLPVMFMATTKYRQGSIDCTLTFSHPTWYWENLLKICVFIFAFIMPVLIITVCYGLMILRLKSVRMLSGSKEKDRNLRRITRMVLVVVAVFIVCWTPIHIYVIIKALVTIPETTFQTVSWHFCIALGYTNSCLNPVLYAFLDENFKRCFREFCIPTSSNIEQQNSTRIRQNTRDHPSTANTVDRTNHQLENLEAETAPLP
T2 sequence (P41143 whole entry, looked up): as the sequence (P41143 whole entry) above
T2 sequence (P41145 whole entry, looked up): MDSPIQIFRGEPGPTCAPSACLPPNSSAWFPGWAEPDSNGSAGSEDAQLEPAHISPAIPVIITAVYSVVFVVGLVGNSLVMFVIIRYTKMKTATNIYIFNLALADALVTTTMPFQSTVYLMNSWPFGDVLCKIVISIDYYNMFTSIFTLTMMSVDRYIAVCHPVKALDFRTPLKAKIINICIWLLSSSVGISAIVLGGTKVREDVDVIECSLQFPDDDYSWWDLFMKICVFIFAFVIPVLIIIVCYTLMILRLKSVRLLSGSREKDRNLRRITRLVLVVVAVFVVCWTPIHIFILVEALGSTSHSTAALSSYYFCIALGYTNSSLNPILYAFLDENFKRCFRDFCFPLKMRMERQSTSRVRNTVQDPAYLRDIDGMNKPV
Test [6] concerns the target T1, Kappa-type opioid receptor. Briefly: Antagonistic activity in theOpioid receptor kappa 1 -mediated [35S]GTP-gamma-S, binding assay against 50 nM U-50,488. In kind it is functional.
Test [7] has as its target T2, Opioid receptors; mu/kappa/delta (Homo sapiens). As to the kind of experiment: Binding affinity towards human kappa,mu,delta receptors was calculated as the ratio; 1/360/360. Format: protein assay.
Test [8] has as its target Mu-type opioid receptor (Cavia porcellus) (UniProt P97266). To be noted: Ileum.
The target in test [9] is T2, Opioid receptors; mu/kappa/delta (Homo sapiens). As to the kind of experiment: Binding affinity towards human kappa,mu,delta receptors was calculated as the ratio; 1/620/1300. Format: protein assay.
The target in test [10] is T1, Kappa-type opioid receptor. To be noted: 10 uM.
Test [11] concerns the target T2, Opioid receptors; mu/kappa/delta (Homo sapiens). Briefly: Binding affinity towards human kappa,mu,delta receptors was calculated as the ratio; 1/3.4/2.3. In kind it is protein assay.
Test [12] has the same target. Briefly: Binding affinity towards human kappa,mu,delta receptors was calculated as the ratio; 1/34/69. Format: protein assay.

Sequence of Mu-type opioid receptor (Cavia porcellus) (P97266 whole entry): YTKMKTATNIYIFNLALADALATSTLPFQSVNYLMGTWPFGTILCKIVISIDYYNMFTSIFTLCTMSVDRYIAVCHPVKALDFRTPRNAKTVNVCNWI
Sequence of Mu-type opioid receptor (P35372 whole entry): as the sequence (P35372 whole entry, looked up) above
T1 sequence (P41145 whole entry): as the sequence (P41145 whole entry, looked up) above

Broadly, the Ki is a measure of affinity in units of concentration, obtained from inhibition or displacement. A lower Ki goes with tighter binding. One may read the IC50 as the point on the concentration scale where inhibition reaches its midpoint. Low readings indicate greater potency in that assay, high ones weaker potency in that assay. Consider `CC(C)C[C@H](NC(=O)[C@H](Cc1ccccc1)NC(=O)[C@@H]1CCCN1C(=O)CNC(=O)[C@@H](N)Cc1ccc(O)cc1)C(=O)N[C@@H](CCCN=C(N)N)C(=O)N[C@@H](CCCN=C(N)N)C(=O)N[C@@H](CCCN=C(N)N)C(N)=O`, for which the Ki at Mu-type opioid receptor was 3.1 µM; in test [1], 6.61 nM; in test [2], over 100 µM. Besides, in [3], the half-inhibitory concentration (IC50) worked out at 4 µM.
On to H-YGPFLRR-NH2, for which the inhibition constant Ki amounted to 12.6 µM on Mu-type opioid receptor, 60.3 nM in [1] and 15.1 µM in test [2].
Take `CC[C@H](C)[C@H](NC(=O)[C@H](CCCNC(=N)N)NC(=O)[C@H](CCCNC(=N)N)NC(=O)[C@H](CC(C)C)NC(=O)[C@H](Cc1ccccc1)NC(=O)CNC(=O)CNC(=O)[C@@H](N)Cc1ccc(O)cc1)C(=O)N[C@@H](CCCNC(=N)N)C(=O)N1CCC[C@H]1C(=O)N[C@@H](CCCCN)C(=O)N[C@@H](CC(C)C)C(=O)N[C@@H](CCCCN)C(=O)O`: affinity in test [1] was put at a Ki of 0.23 nM.
In the case of `CC[C@H](C)[C@H](NC(=O)[C@H](CCCNC(=N)N)NC(=O)[C@H](CCCNC(=N)N)NC(=O)[C@H](CC(C)C)NC(=O)[C@H](Cc1ccccc1)NC(=O)[C@@H]1CCCN1C(=O)CNC(=O)[C@@H](N)Cc1ccc(O)cc1)C(=O)N[C@@H](CCCNC(=N)N)C(=O)N[C@@H](CCCNC(=N)N)C(=O)N[C@@H](CCCCN)C(N)=O`, in [4], it took 0.41 µM to reach half-maximal inhibition (IC50). The Ki was determined as 1.66 µM at Mu-type opioid receptor (cho), 1.2 nM in [1] (cho) and 3.23 µM in [2] (cho).
For the compound `CCCC[C@H](NC(=O)[C@H](CC(C)C)NC(=O)[C@H](Cc1ccccc1)NC(=O)[C@@H]1CCCN1C(=O)CNC(=O)[C@@H](N)Cc1ccc(O)cc1)C(=O)N[C@@H](CCCN=C(N)N)C(N)=O` (H-YGPFL[Nle]R-NH2), the results for the Ki (on Mu-type opioid receptor; in test [1]; in test [2]) were over 100 µM, over 100000 nM and 14.1 µM, respectively.
As for H-YGPFLRRIR-NH2, the Ki ratio entry in [5] is listed as “kappa/delta/mu”. In addition, the Ki on Mu-type opioid receptor was determined as 6.03 µM; in test [1] it was 10.7 nM; in test [2], 13.2 µM.
In turn, `CC(C)C[C@H](NC(=O)[C@H](Cc1ccccc1)NC(=O)[C@@H]1CCCN1C(=O)CNC(=O)[C@@H](N)Cc1ccc(O)cc1)C(=O)N[C@@H](CCCNC(=N)N)C(=O)N[C@@H](CCCNC(=N)N)C(=O)N[C@@H](CCCNC(=N)N)C(=O)N[C@@H](CCCNC(=N)N)C(=O)N1CCC[C@H]1C(=O)N[C@@H](CCCCN)C(N)=O` yielded an IC50 in test [4] of 0.34 µM. Also, the Ki at Mu-type opioid receptor (cho) was 2.75 µM; in [1] (cho) it was 0.44 nM; in test [2] (cho) it was 6.76 µM.
The compound `CC[C@H](C)[C@H](NC(=O)[C@H](CCCN=C(N)N)NC(=O)[C@H](CCCN=C(N)N)NC(=O)[C@H](CC(C)C)NC(=O)[C@H](Cc1ccccc1)NC(=O)CNC(=O)CNC(=O)[C@@H](N)Cc1ccc(O)cc1)C(=O)O` returned an inhibition constant Ki on Mu-type opioid receptor of 0.0354 µM.
Turning to `CC(C)C[C@H](NC(=O)[C@H](Cc1ccccc1)NC(=O)CNC(=O)CNC(=O)[C@@H](N)Cc1ccc(O)cc1)C(=O)N[C@@H](CCCNC(=N)N)C(=O)N[C@@H](CCCNC(=N)N)C(=O)O`, the Ki is 0.038 µM on Mu-type opioid receptor and 0.0097 µM in test [2].
For the compound `CC[C@H](C)[C@H](NC(=O)[C@H](CCCNC(=N)N)NC(=O)[C@H](CCCNC(=N)N)NC(=O)[C@H](CC(C)C)NC(=O)[C@H](Cc1ccccc1)NC(=O)[C@@H]1CCCN1C(=O)CNC(=O)[C@@H](N)Cc1ccc(O)cc1)C(=O)N[C@@H](CCCNC(=N)N)C(=O)N1CCC[C@H]1C(=O)N[C@@H](CCCCN)C(N)=O`, the Ki on Mu-type opioid receptor is 5.25 µM; in test [1], 2.4 nM. In test [6], the IC50 was found to be 0.44 µM.
On to H-YGGFLRRIR-OH, for which the Ki at Mu-type opioid receptor was determined as 0.0238 µM; in test [1], 2.5 nM; in test [2] it was 0.0098 µM.
For H-YGGFLR-OH, the inhibitory constant (Ki) on Mu-type opioid receptor was found to be 0.0406 µM; in test [1] it was 404 nM; in test [2], 0.0091 µM.
Turning to `CC[C@H](C)[C@H](NC(=O)[C@H](CCCN=C(N)N)NC(=O)[C@H](CCCN=C(N)N)NC(=O)[C@H](CC(C)C)NC(=O)[C@H](Cc1ccccc1)NC(=O)[C@@H]1CCCN1C(=O)CNC(=O)[C@@H](N)Cc1ccc(O)cc1)C(=O)N[C@@H](CCCN=C(N)N)C(=O)N1CCC[C@@H]1C(=O)N[C@@H](CCCCN)C(=O)O`, the Ki ratio entry in test [7] is on record as “kappa/mu/delta”.
Regarding `CC[C@H](C)[C@H](NC(=O)[C@H](CCCNC(=N)N)NC(=O)[C@H](CCCNC(=N)N)NC(=O)[C@H](CC(C)C)NC(=O)[C@H](Cc1ccccc1)NC(=O)[C@@H]1CCCN1C(=O)CNC(=O)[C@@H](N)Cc1ccc(O)cc1)C(=O)N[C@@H](CCCNC(=N)N)C(=O)N[C@@H](CCCNC(=N)N)C(N)=O`, it took 1.26 µM to reach half-maximal inhibition in test [4] (IC50). For the same compound, the inhibition constant Ki at Mu-type opioid receptor (cho) was determined as 2.34 µM; in [1] (cho) it was 3.39 nM; in [2] (cho), 6.03 µM.
Consider `CC[C@H](C)[C@H](NC(=O)[C@H](CCCNC(=N)N)NC(=O)[C@H](CCCNC(=N)N)NC(=O)[C@H](CC(C)C)NC(=O)[C@H](Cc1ccccc1)NC(=O)CNC(=O)CNC(=O)[C@@H](N)Cc1ccc(O)cc1)C(=O)N[C@@H](CCCNC(=N)N)C(=O)N1CCC[C@H]1C(=O)O`, for which the inhibition constant (Ki) at Mu-type opioid receptor stood at 0.0119 µM; in test [1] it was 0.35 nM; in test [2] it was 0.024 µM.
For the compound H-YGPFLR-NH2 [listing 1 of 2 here], the Ki on Mu-type opioid receptor is 19.5 µM; in test [1], 5600 nM; in test [2], 12.6 µM.
Turning to H-YGPFL-NH2, the figures for the inhibition constant (Ki) (at Mu-type opioid receptor; in test [1]; in test [2]) were 15.5 µM, over 10000 nM and 18.6 µM, respectively.
In test [8], `CC[C@H](C)[C@H](NC(=O)[C@H](CCCN=C(N)N)NC(=O)[C@H](CCCN=C(N)N)NC(=O)[C@H](CC(C)C)NC(=O)[C@H](Cc1ccccc1)NC(=O)[C@@H]1CCCN1C(=O)CNC(=O)[C@@H](N)Cc1ccc(O)cc1)C(=O)N[C@@H](CCCN=C(N)N)C(=O)N1CCC[C@@H]1C(=O)N[C@@H](CCCCN)C(N)=O` displayed a Ke of 494 nM.
With `CC[C@H](C)[C@H](NC(=O)[C@H](CCCN=C(N)N)NC(=O)[C@H](CCCN=C(N)N)NC(=O)[C@H](CC(C)C)NC(=O)[C@H](Cc1ccccc1)NC(=O)[C@@H]1CCCN1C(=O)CNC(=O)[C@@H](N)Cc1ccc(O)cc1)C(=O)N[C@@H](CCCN=C(N)N)C(=O)N1CCC[C@@H]1C(N)=O`, in test [9], the Ki ratio result is listed as “kappa/mu/delta”.
As to `CC[C@H](C)[C@H](NC(=O)[C@H](CCCN=C(N)N)NC(=O)[C@H](CCCN=C(N)N)NC(=O)[C@H](CC(C)C)NC(=O)[C@H](Cc1ccccc1)NC(=O)CNC(=O)CNC(=O)[C@@H](N)Cc1ccc(O)cc1)C(=O)N[C@@H](CCCN=C(N)N)C(=O)N1CCC[C@H]1C(=O)N[C@@H](CCCCN)C(N)=O`, the Max stimulation in test [10] amounted to 73%. The compound further returned a Ki in test [1] of 0.059 nM.
H-YGPFLR-NH2 [listing 2 of 2 here]: the Ki ratio entry in [11] was “kappa/delta/mu”.
Compound `CC(C)C[C@H](NC(=O)[C@H](Cc1ccccc1)NC(=O)[C@@H]1CCCN1C(=O)CNC(=O)[C@@H](N)Cc1ccc(O)cc1)C(=O)N[C@@H](CCCN=C(N)N)C(=O)N[C@@H](CCCN=C(N)N)C(=O)N[C@@H](CCCN=C(N)N)C(=O)N[C@@H](CCCN=C(N)N)C(=O)N1CCC[C@@H]1C(=O)N[C@@H](CCCCN)C(N)=O` yielded a Ke in [8] of 280 nM.
`CC[C@H](C)[C@H](NC(=O)[C@H](CCCN=C(N)N)NC(=O)[C@H](CCCN=C(N)N)NC(=O)[C@H](CC(C)C)NC(=O)[C@H](Cc1ccccc1)NC(=O)CNC(=O)CNC(=O)[C@@H](N)Cc1ccc(O)cc1)C(=O)N[C@@H](CCCN=C(N)N)C(=O)N1CCC[C@@H]1C(=O)O`: the Ki ratio result in test [12] is on record as “kappa/mu/delta”.
On to H-YGPFLRRI-NH2, for which the inhibition constant (Ki) is 16.2 µM at Mu-type opioid receptor, 79.4 nM in test [1] and 16.2 µM in test [2].
For the compound `CC[C@H](C)[C@H](NC(=O)[C@H](CCCNC(=N)N)NC(=O)[C@H](CCCNC(=N)N)NC(=O)[C@H](CC(C)C)NC(=O)[C@H](Cc1ccccc1)NC(=O)[C@@H]1CCCN1C(=O)CNC(=O)[C@@H](N)Cc1ccc(O)cc1)C(=O)N[C@@H](CCCNC(=N)N)C(=O)N1CCC[C@H]1C(=O)N[C@@H](CCCCN)C(=O)O`, the Ki on Mu-type opioid receptor (cho) was found to be 15.1 µM; in test [1] (cho), 41.7 nM; in test [2] (cho), 15 µM.
Turning to `CC[C@H](C)[C@H](NC(=O)[C@H](CCCN=C(N)N)NC(=O)[C@H](CCCN=C(N)N)NC(=O)[C@H](CC(C)C)NC(=O)[C@H](Cc1ccccc1)NC(=O)[C@@H]1CCCN1C(=O)CNC(=O)[C@@H](N)Cc1ccc(O)cc1)C(=O)N[C@@H](CCCN=C(N)N)C(=O)N1CCC[C@H]1C(N)=O`, the inhibition constant (Ki) worked out at 6.2 µM on Mu-type opioid receptor (cho), 10 nM in test [1] (cho) and 13.5 µM in test [2] (cho).
The compound `Oc1ccc2c3c1O[C@H]1c4[nH]c5c(c4C[C@@]4(O)[C@@H](C2)N(CC2CC2)CC[C@]314)C[C@@]1(O)[C@H]2Cc3ccc(O)c4c3[C@@]1(CCN2CC1CC1)[C@H]5O4` came in with a Ke in test [8] of 0.572 nM.
